# Test results reported in paper PMC12606464, “Investigating NFE2L1 activators for targeted protein aggregate clearance: a follow-up study” (RSC Medicinal Chemistry, 2025).
# Assays:
# [1] = test system: chymotrypsin-like activity of the 26S proteasome; experiment: Proteasome activity assay in HEK293 cell lysates; format: cell-based, human; conditions: 7.5 μM, 16 h; for Proteasome chymotrypsin-like activity, geometric mean (treatment): HEK293 lysates, 37 °C, DMSO control = 1; for Proteasome chymotrypsin-like activity, geometric mean of ratios: treatment/control, ratio paired t test, HEK293
# Procedure: Building on previous findings, we investigated how selected RUN compounds influence proteasomal function itself. Specifically, we examined the chymotrypsin-like activity of the 26S proteasome following a 16 hour treatment with 7.5 μM RUN compounds in the HEK293 cell line. […] In addition, two other cell lines, MCF7 and SH-SY5Y, were measured (see the SI, Fig. S6).
# Fig. 3 (A) HEK293 cells were treated with RUN compounds at a concentration of 7.5 μM for 16 hours. DMSO was used as a vehicle control. Proteasome chymotrypsin-like activity was measured in cell lysates at 37 °C. Data came from three biological replicates (n = 3). Statistical analysis was done using ratio paired t-tests corrected for multiple comparisons with Holm–Šídák's method (α = 0.05). *p < 0.05. Detailed results of the analysis are shown in SI Table S7. (B) RUN-89 protects against polyQ-mediated toxicity in an NFE2L1-dependent manner. HCT116 parental cells (WT) and two independent DDI2 knockout clones (KO 04 and KO 11), in which NFE2L1 activation is impaired, were transiently transfected with plasmids encoding non-aggregating EGFP-HttQ23 or aggregation-prone EGFP-HttQ74. Cells were treated with 1 or 3 μM RUN-89 for 48 hours, and viability was measured using the alamarBlue assay. […] Data are shown as the Geomean ± GeoSD from four independent biological replicates (n = 4). Statistical analysis was performed on log2-transformed values using two-way repeated-measures ANOVA followed by Šídak's multiple comparison test. (C right) Parental SH-SY5Y cells (without α-synuclein expression) were treated in the same manner. (C left) The protective effect of RUN compounds was assessed by rotenone-induced α-synuclein proteotoxicity in SH-SY5Y cells, which mimics the PD-like phenotype. Cells were pre-treated with increasing concentrations of RUN compounds (0.312, 0.625, 1.25, and 2.5 μM) for 4 hours and then rotenone (1.125 μM) treatment was done for 24 hours. […]
# 2.7 Proteasome activity assay
# The corresponding cell lines (HEK293, MCF7, or SH-SY5Y) were seeded into 6-well plates and allowed to adhere overnight under standard culture conditions. On the following day, HEK293 cells were treated with 7.5 µM RUN compounds, whereas MCF7 and SH-SY5Y cells were treated with 5 µM RUN compounds, for 16 hours each. After treatment, cells were harvested, resuspended in lysis buffer (50 mM HEPES, pH 7.5; 5 mM EDTA; 150 mM NaCl; 2 mM ATP; 1% Triton), and centrifuged at 15,000 rpm for 15 minutes at 4 °C. The resulting lysates (25 µg total protein) were incubated with 200 µM of the fluorogenic substrate Suc-Leu-Leu-Val-Tyr-AMC (Bachem, I1395) in assay buffer (50 mM Tris, pH 8.0; 10 mM MgCl₂; 1 mM ATP; 1 mM DTT) at 37 °C. Free AMC release was detected by measuring fluorescence at 360/460 nm. […]
# (§1) HEK293 cells were seeded in 6-well plates and incubated for 24 hours before being transfected with a plasmid containing the CMV-XBP-Gluc reporter using Lipofectamine 2000.(4) After 6 hours, the transfected cells were subsequently transferred to 384-well plates, stabilized overnight, and treated with the proteasome inhibitor and ER stress inducer MG132 and/or various concentrations of RUN compounds (1, 5, and 10 µM) or vehicle (DMSO) for 16 hours. Luciferase activity was normalized to cell viability, which was assessed using the alamarBlue assay. The results are expressed as the fold change compared with the DMSO control, with the experiment conducted in biological triplicate. […]
# IRE1/XBP1s = experiment: XBP1 endoplasmic reticulum stress reporter assay (CMV-XBP-GLuc); format: cell-based, human; conditions: Figure S5; for Mean diff, MG132 vs. RUN compound (log2-transformed values) / Mean diff, DMSO vs. treatment (log2-transformed values): Dunnett's multiple comparisons test; for Mean 2 (mean of log2-transformed values, treatment; DMSO = 0): N = 3
# From the text: Next, we investigated whether the selected RUN compounds activate the NFE2L1 transcriptional program without triggering the unfolded protein response (UPR), a crucial cellular process induced by the accumulation of unfolded proteins in the endoplasmic reticulum (ER), potentially leading to ER stress. To monitor this, an alternative reporter was used to assess the activation of IRE1/XBP1s.[47] IRE1 is a bifunctional serine/threonine kinase and endoribonuclease embedded in the ER membrane, playing a central role in UPR signaling. Its RNase activity facilitates the splicing of X-box binding protein 1 (XBP1) mRNA. The spliced XBP1 acts as a transcription factor, promoting the re-establishment of ER homeostasis by upregulating genes involved in the ER-associated degradation (ERAD) pathway.[48–50] The reporter contains Gaussia luciferase positioned out of frame downstream of the XBP1 splice site, ensuring that active luciferase translation occurs only in the presence of ER stress.[51,52] Cells transfected with this reporter were treated with RUN compounds at 1, 5, and 10 μM, and luciferase activity was measured.
# Figure S5: Impact of RUN compounds on ER stress-induced activation of the XBP1 reporter.
# HEK293 cells were transfected with the CMV-XBP-GLuc reporter plasmid and allowed to stabilize overnight. Following stabilization, the cells were treated with MG132 or various concentrations of the test compounds (1, 2, 3, 5, 7.5, and 10 µM) for 16 hours. The Gaussia luciferase signal, which reflects XBP1 mRNA splicing, was adjusted based on cell viability as measured by the alamarBlue assay. Data are represented as Geomean ± GeoSD of three independent experiments ( n = 3. Statistical comparison of MG132 and RUN compounds vs DMSO and RUN compounds vs MG132 was performed on log2-transformed values using two-way repeated-measures ANOVA with Geisser –Greenhouse correction, followed by Dunnett’s multiple comparisons test with individual variances computed for each comparison. Results of the analysis are shown in Supplementary Table S15. […]
# GraphPad Prism (v 10.6.1).
# 2.8 XBP1-endoplasmic reticulum (ER) stress reporter assay
# as §1
Structure (SMILES),"Proteasome chymotrypsin-like activity, geometric mean (treatment) [1]","Proteasome chymotrypsin-like activity, geometric mean of ratios [1]","Mean diff, MG132 vs. RUN compound (log2-transformed values) (IRE1/XBP1s; 1 µM)","Mean 2 (mean of log2-transformed values, treatment; DMSO = 0) (IRE1/XBP1s; 1 µM)","Mean diff, MG132 vs. RUN compound (log2-transformed values) (IRE1/XBP1s; 5 µM)","Mean 2 (mean of log2-transformed values, treatment; DMSO = 0) (IRE1/XBP1s; 5 µM)","Mean diff, MG132 vs. RUN compound (log2-transformed values) (IRE1/XBP1s; 10 uM)","Mean 2 (mean of log2-transformed values, treatment; DMSO = 0) (IRE1/XBP1s; 10 uM)","Mean diff, DMSO vs. treatment (log2-transformed values) (IRE1/XBP1s; DMSO vs. 1 µM)","Mean diff, DMSO vs. treatment (log2-transformed values) (IRE1/XBP1s; DMSO vs. 5 µM)","Mean diff, DMSO vs. treatment (log2-transformed values) (IRE1/XBP1s; DMSO vs. 10 uM)"
COc1ccc(/C=C2\CC(N)C/C(=C\c3ccc(OC)c(OC)c3)C2=O)cc1OC (centres unmarked) [RUN-81],1.21,1.21,2.079,0.02701,2.509,0.216,3.74,0.2168,-0.02701,-0.216,-0.2168
COc1ccc(/C=C2\CC(NC(=O)c3ccccn3)C/C(=C\c3ccc(OC)c(OC)c3)C2=O)cc1OC (centres unmarked) [RUN-94],1.21,1.21,2.183,-0.07708,1.118,1.607,2.807,1.15,0.07708,-1.607,-1.15
COc1ccc(/C=C2\CC(NC(=O)C3CCCC3)C/C(=C\c3ccc(OC)c(OC)c3)C2=O)cc1OC (centres unmarked) [RUN-89],–,1.36,1.977,0.1287,1.754,0.9716,2.213,1.744,-0.1287,-0.9716,-1.744
